Data as given in publication PMC5656517 (European journal of pharmaceutical sciences : official …, 2017).
Values after ≈ are worked out from the molar mass of the structure shown. Where two headings read alike, the source gives them in different places.

How the values were obtained:
[1] = molecular target: CYP2C9 (Homo sapiens, UniProt P11712); assay: Single concentration; details: human liver microsomes
[2] = molecular target: T1, CYP3A4 (Homo sapiens, UniProt P08684); assay: Single concentration; details: human liver microsomes
Target sequence in this assay (P08684 whole entry): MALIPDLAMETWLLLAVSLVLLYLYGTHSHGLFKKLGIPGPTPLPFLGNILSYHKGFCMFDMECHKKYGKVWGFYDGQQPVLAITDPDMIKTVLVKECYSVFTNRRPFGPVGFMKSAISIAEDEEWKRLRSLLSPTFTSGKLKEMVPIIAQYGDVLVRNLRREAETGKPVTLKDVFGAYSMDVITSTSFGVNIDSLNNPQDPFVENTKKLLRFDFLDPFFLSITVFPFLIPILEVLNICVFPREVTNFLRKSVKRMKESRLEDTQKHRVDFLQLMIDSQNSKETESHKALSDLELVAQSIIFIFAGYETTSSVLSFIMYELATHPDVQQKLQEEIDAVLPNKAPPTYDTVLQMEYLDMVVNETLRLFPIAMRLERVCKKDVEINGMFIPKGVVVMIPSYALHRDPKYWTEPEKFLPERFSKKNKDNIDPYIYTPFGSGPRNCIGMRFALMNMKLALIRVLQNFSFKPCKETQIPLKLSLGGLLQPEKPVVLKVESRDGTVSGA

[3] = molecular target: T2, CYP2C8 (Homo sapiens, UniProt P10632); assay: Single concentration; details: human liver microsomes
T2 sequence (P10632 1-490): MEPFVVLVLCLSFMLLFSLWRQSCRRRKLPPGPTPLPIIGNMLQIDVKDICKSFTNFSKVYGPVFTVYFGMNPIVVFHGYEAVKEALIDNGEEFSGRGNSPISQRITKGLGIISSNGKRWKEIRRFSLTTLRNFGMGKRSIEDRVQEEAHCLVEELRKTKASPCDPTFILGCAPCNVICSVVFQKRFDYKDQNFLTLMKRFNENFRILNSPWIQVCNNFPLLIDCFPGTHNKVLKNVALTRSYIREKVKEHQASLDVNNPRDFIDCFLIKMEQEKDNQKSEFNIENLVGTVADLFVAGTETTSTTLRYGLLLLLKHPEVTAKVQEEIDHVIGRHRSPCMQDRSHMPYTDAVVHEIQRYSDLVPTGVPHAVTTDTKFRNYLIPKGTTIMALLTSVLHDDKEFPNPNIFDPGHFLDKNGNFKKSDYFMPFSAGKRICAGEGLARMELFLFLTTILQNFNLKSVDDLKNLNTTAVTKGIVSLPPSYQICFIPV

[4] = molecular target: T1, CYP3A4; assay type: in vitro ADME; details: human liver microsomes, 100 µM
Target sequence in this assay (P08684 whole entry): as the sequence (P08684 whole entry) above

[5] = molecular target: T3, CYP1A2 (Homo sapiens, UniProt P05177); assay: Cocktail assay IC50 determination in human liver microsomes; details: substrate phenacetin, mean ± standard deviation
T3 sequence (P05177 1-516): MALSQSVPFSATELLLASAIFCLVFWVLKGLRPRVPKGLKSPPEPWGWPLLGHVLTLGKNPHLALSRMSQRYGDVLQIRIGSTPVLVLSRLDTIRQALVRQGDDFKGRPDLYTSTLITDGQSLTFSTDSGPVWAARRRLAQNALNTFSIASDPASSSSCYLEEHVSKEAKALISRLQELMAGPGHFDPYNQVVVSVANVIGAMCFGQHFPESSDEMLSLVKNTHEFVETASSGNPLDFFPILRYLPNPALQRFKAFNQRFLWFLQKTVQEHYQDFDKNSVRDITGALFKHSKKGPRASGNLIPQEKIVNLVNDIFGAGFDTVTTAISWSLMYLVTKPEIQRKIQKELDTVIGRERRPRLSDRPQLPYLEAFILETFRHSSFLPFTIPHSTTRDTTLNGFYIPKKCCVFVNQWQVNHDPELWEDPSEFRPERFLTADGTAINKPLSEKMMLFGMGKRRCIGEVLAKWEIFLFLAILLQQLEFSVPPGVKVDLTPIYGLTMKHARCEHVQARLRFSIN

[6] = molecular target: T1, CYP3A4; assay type: in vitro ADME; details: recombinant human CYP3A4, 20 µM
Target sequence in this assay (P08684 2-503 limits assumed): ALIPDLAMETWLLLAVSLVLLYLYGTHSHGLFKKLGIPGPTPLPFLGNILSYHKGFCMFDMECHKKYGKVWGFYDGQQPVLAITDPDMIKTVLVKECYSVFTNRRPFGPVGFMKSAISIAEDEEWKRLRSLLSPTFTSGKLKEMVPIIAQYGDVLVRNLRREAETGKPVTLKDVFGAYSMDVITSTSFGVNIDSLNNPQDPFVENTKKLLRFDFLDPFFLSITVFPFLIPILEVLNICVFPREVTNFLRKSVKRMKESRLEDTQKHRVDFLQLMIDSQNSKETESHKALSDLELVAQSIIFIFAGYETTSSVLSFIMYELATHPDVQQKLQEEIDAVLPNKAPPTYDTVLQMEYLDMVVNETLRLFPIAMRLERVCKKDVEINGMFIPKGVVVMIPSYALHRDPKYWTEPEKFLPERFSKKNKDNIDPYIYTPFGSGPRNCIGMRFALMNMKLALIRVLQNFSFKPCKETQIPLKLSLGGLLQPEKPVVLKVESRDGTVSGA

[7] = molecular target: T1, CYP3A4; assay: Effect of washing to restore CYP3A4 activity, human liver microsomes; assay type: in vitro ADME; details: 50 µM, 30 min preincubation, washed 3 times, midazolam
Target sequence in this assay (P08684 whole entry): as the sequence (P08684 whole entry) above

[8] = tested on: CYP2C; details: ref He et al. (2015); cited from earlier work
[9] = tested on: CYP3A4 (testosterone); details: ref He et al. (2015); cited from earlier work
[10] = molecular target: T1, CYP3A4; assay: Effect of washing to restore CYP3A4 activity, recombinant CYP3A4; assay type: in vitro ADME; details: recombinant CYP3A4, 10 µM, 30 min preincubation, washed 3 times, midazolam
Target sequence in this assay (P08684 2-503 limits assumed): as the sequence (P08684 2-503 limits assumed) above

[11] = molecular target: T2, CYP2C8; assay: Cocktail assay IC50 determination in human liver microsomes; details: substrate amodiaquine, mean ± standard deviation
[12] = molecular target: CYP2D6 (Homo sapiens, UniProt P10635); assay: as above; details: substrate dextromethorphan, mean ± standard deviation
Chain of CYP2D6 (P10635 whole entry): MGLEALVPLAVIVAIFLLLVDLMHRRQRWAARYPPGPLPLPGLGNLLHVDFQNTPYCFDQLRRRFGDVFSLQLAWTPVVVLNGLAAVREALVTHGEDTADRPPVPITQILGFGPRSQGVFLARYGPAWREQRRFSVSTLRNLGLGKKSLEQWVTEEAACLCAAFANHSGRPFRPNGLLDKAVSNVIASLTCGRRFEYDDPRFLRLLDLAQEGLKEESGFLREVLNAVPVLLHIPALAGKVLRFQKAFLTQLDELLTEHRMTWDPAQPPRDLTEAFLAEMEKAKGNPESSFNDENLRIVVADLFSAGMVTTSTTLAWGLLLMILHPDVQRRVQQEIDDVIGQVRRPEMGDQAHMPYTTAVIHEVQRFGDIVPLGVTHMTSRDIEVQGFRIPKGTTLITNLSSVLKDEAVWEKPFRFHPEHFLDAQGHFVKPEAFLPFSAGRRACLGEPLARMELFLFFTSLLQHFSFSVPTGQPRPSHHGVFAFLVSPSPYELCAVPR

[13] = molecular target: T3, CYP1A2; assay: Single concentration; details: human liver microsomes
[14] = molecular target: CYP2C19 (Homo sapiens, UniProt P33261); assay: Single concentration; details: human liver microsomes
Chain of CYP2C19 (P33261 whole entry): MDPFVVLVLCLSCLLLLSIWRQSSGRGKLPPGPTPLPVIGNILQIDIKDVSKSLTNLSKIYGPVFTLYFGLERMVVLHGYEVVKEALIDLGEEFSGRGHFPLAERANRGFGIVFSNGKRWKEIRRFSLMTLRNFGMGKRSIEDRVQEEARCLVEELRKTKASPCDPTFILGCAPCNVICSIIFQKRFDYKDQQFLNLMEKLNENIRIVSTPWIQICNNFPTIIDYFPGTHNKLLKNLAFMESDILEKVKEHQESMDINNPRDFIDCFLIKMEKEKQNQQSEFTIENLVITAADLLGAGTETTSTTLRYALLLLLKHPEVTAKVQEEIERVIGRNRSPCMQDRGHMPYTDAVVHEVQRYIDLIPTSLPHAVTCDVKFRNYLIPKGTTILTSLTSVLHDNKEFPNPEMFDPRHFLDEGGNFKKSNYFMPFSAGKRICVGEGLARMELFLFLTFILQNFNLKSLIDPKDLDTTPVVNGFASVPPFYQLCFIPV

[15] = molecular target: T1, CYP3A4; assay: KI and kinact determination with recombinant CYP3A4; assay type: in vitro ADME
Target sequence in this assay (P08684 2-503 limits assumed): as the sequence (P08684 2-503 limits assumed) above

[16] = tested on: cytochrome P450 enzymes; assay: Single concentration; details: test concentration of 10 µM
[17] = molecular target: T3, CYP1A2; details: ref He et al. (2015); cited from earlier work
[18] = NADPH, 1000 U/mL superoxide dismutase
[19] = without NADPH, mean of two experiments

Chain of CYP2C9 (P11712 whole entry): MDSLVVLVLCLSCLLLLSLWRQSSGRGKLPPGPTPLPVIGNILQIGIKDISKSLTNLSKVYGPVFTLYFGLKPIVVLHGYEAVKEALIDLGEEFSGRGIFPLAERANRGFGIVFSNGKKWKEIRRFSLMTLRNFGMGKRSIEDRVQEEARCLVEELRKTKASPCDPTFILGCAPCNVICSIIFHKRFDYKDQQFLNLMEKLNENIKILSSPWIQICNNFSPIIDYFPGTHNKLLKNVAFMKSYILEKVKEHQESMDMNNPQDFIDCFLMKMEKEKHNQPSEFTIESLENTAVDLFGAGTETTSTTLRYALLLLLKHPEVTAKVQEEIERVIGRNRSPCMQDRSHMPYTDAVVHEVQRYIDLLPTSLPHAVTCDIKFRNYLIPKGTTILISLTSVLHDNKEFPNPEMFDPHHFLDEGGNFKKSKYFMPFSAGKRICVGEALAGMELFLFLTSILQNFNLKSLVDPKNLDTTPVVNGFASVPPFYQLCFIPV

## C=CC(C)(C)c1cc(/C=C/C(=O)c2ccc(O)cc2)c(OC)cc1O [Licochalcone A, licochalcone A]
[1]
  inhibition of CYP2C9 at 10 µM, in words: strongly inhibited
[2]
  inhibition of CYP3A4 (testosterone) at 10 µM, in words: moderate inhibitor
[3]
  inhibition of CYP2C8 at 10 µM, in words: strongly inhibited
[4]; NADPH, 2 mM glutathione
  % Control activity: 38.5%
[4]; NADPH, 1000 U/mL catalase
  % Control activity: 42.4%
[4]; [18]
  % Control activity: 46.9%
[4]; NADPH, mean of two experiments
  % Control activity: 49.5%
[4]; [19]
  % Control activity: 100%
[5]
  IC50, CYP1A2: 12.40 ± 3.47 µg/mL (≈ 36.6 µM)
[6]; NADPH, 2 mM glutathione
  % Control activity: 32.4%
[6]; NADPH, 1000 U/mL catalase
  % Control activity: 38.8%
[6]; [18]
  % Control activity: 28.1%
[6]; NADPH, mean of two experiments
  % Control activity: 42.0%
[6]; [19]
  % Control activity: 100%
[7]
  remaining enzyme activity after washing out the inhibitor: 57%
[8]
  inhibition of CYP2C, in words: strongly inhibited
[9]
  inhibition of CYP3A4 (testosterone), in words: strongly inhibited
[10]
  remaining enzyme activity after washing out the inhibitor: 16.7%
[11]
  IC50, CYP2C8: 1.05 ± 0.08 µg/mL (≈ 3.1 µM)
[12]
  IC50, CYP2D6: 17.23 ± 1.68 µg/mL (≈ 50.9 µM)
[13]
  inhibition of CYP1A2 at 10 µM, in words: weakly inhibited
[14]
  inhibition of CYP2C19 at 10 µM, in words: moderate inhibitor
[15]; read-out: KI for inactivation of CYP3A4 (midazolam), recombinant human CYP3A4
  KI (inactivation): 2.22 µM
[15]; recombinant CYP3A4
  Efficiency of inactivation: 0.021 µM⁻¹ min⁻¹
[15]; recombinant human CYP3A4
  kinact for inactivation of CYP3A4 (midazolam): 0.047 min⁻¹
[16]
  inhibition of one or more cytochrome P450 enzymes: more than 50%
[17]
  inhibition of CYP1A2, in words: strongly inhibited
